What was measured:
in vivo = experiment: in vivo; parameters: species or system Sprague-Dawley rats; settings: rat, iv
Protocol: Sprague-Dawley rats were randomly divided into three groups and each group contains 6 rats. The prepared micelles solution was injected through femoral vein and the dose was 20 mg/kg (sorafenib) and 30 mg/kg (TG100-115). Free sorafenib and TG100-115 solutions were used as reference and the dose is same as the micelles group. After the end of administration, appropriate blood was obtained from the retro-orbital sinus at preselected time intervals (5, 10, 15, 30, 60 min, 2, 4, 6, 8, 12, 24, 48 and 72 h). Then, the blood was centrifuged at 3500 rpm for 10 min to acquire final plasma.
The plasma concentration of sorafenib and TG100-115 was measured using a validated HPLC-MS/MS method. The specific conditions are as follows: poroshell 120 poroshell-C18 column (50 mm × 4.6 mm, 2.7 μm, Agilent) was chosen as an analytical column, and the column temperature was 40 °C. The mobile phase comprised acetonitrile and 10 mmol/L ammonium acetate containing 0.1% formic acid, and the flow rate was 0.7 mL/min. Imatinib and naproxen were chosen as internal standard (IS) to improve the accuracy of the measurement. The ion ionization of sorafenib and imatinib was positive ion ionization, while TG100-115 and naproxen were negative ion ionization. The specific MS parameters of analytes were shown in S1 (Supplemental 1).
Plasma samples are processed according to the standard operating practices described below. Briefly, add 150.0 μL of plasma sample and 20.0 μL of the IS solution in a 2.0 mL EP tube. Then, the solution was vortexed for 1.0 min and added 300 μL of ice acetonitrile to precipitate protein. After vortexing for 1.0 min, the solution was centrifuged at 15000 rpm for 10 min. After that, 150 μL of supernatant was collected for quantitative analysis.

[1] = system: Hep-3B-xenografted nude mouse model; experiment: In vivo anti-tumor activity and safety in Hep-3B-xenografted nude mouse model; settings: Hep-3B nude mouse, TG100-115 30 mg/kg and/or sorafenib 20 mg/kg; for IRT (tumor inhibition rate): versus normal saline
Protocol: The in vivo anti-tumor activity and safety of the prepared micelles was investigated by using Hep-3B-xenografted nude mouse model. The mice were randomly divided into six groups (n = 6) when the tumor volumes reached around 150 mm^3. The tumor-bearing mice were treated with non-targeted micelles solution, targeted micelle solution, TG100-115 solution, sorafenib solution, mixed sorafenib/TG100-115 solution and normal saline. […] The mice were sacrificed on day 28. Thereafter, the tumors were totally excised and precisely weighed. The tumor inhibitory rates were calculated using the formula: Tumor inhibition rate (%) = (Vblank −Vsample)/Vblank × 100%, Vblank, and Vsample represent the tumor volumes in the blank and test, reference group respectively.

[2] = parameters: method as in Hsu et al., 2018; Wang et al., 2018; settings: checkpoint inhibitor alone only 20%, ref Hsu et al., 2018, Wang et al.; cited from earlier work
[3] = twice a week for 4 weeks, day 28

Row | AUC(0-inf) (in vivo; Sprague-Dawley, 20 mg/kg) [ng·h/mL] | AUC(0-t) (in vivo; Sprague-Dawley, 20 mg/kg) [ng·h/mL] | Cmax (in vivo; Sprague-Dawley, 20 mg/kg) [ng/mL] | Tmax (in vivo; Sprague-Dawley, 20 mg/kg) [h] | clearance (in vivo; Sprague-Dawley, 20 mg/kg) [mL/min/kg] | half-life (in vivo; Sprague-Dawley, 20 mg/kg) [h] | Compound | CLz of TG100-115 (in vivo; 30 mg/kg) [mL/min/kg] | Tumor weight [1, 3] [g] | IRT (tumor inhibition rate) [1, 3] [%] | efficiency of checkpoint inhibitor in the treatment of immune-tolerant mice when combined with TG100-115 [2] [%] | Body weight Final [1, 3] [g] | Body weight Initial ([1]; before treatment) [g]
1 | – | – | – | – | – | – | Nc1nc(N)c2nc(-c3cccc(O)c3)c(-c3cccc(O)c3)nc2n1 [TG100-115] | 545 ± 91.7 | 2.72 ± 0.31 | 40.87 | 80 | – | –
2 | 78.6 ± 20.6 | 74.5 ± 18.7 | 17.3 ± 3.2 | 0.167 ± 0.073 | 423 | 8.8 ± 1.4 | CNC(=O)c1cc(Oc2ccc(NC(=O)Nc3ccc(Cl)c(C(F)(F)F)c3)cc2)ccn1 [Sorafenib] | – | 2.48 ± 0.36 | 46.09 | – | 34.2 | 23.6
